Measured values published in PubChem BioAssay (NCI).
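Interpolation was linear, between the two tested concentrations surrounding the appropriate level; five concentrations were tested over 48 hours in 96-well plates. GI50: concentration for 50% inhibition of growth. The concentration for full growth arrest is given as TGI.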

Experiments:
Assay in all cases: NCI anticancer screen, dose series, 48 h; in the data active = GI50 below about 0.43 µM; inactive = the rest
CAKI-1 renal = tested on: CAKI-1 renal
OVCAR-5 ovarian = tested on: OVCAR-5 ovarian
LOX IMVI melanoma = tested on: LOX IMVI melanoma
M14 melanoma = tested on: M14 melanoma
MDA-MB-231 breast = tested on: MDA-MB-231 breast
NCI-H522 lung = tested on: NCI-H522 lung
UACC-62 melanoma = tested on: UACC-62 melanoma
MOLT-4 leukemia = tested on: MOLT-4 leukemia
COLO 205 colon = tested on: COLO 205 colon
U251 CNS = tested on: U251 CNS
SW-620 colon = tested on: SW-620 colon
NCI-H226 lung = tested on: NCI-H226 lung
A549 NSCLC = tested on: A549 NSCLC
T-47D breast = tested on: T-47D breast
MCF7 breast = tested on: MCF7 breast
EKVX NSCLC = tested on: EKVX NSCLC
MALME-3M melanoma = tested on: MALME-3M melanoma
HL-60(TB) leukemia = tested on: HL-60(TB) leukemia
HCC-2998 colon = tested on: HCC-2998 colon
SF-539 CNS = tested on: SF-539 CNS
DU-145 prostate = tested on: DU-145 prostate
SK-MEL-28 melanoma = tested on: SK-MEL-28 melanoma
OVCAR-3 ovarian = tested on: OVCAR-3 ovarian
SR leukemia = tested on: SR leukemia
SK-OV-3 ovarian = tested on: SK-OV-3 ovarian
HCT-15 colon = tested on: HCT-15 colon
NCI-H460 lung = tested on: NCI-H460 lung
MDA-MB-435 = tested on: MDA-MB-435
OVCAR-4 ovarian = tested on: OVCAR-4 ovarian
SF-268 CNS = tested on: SF-268 CNS
KM12 colon = tested on: KM12 colon
SF-295 CNS = tested on: SF-295 CNS
HT29 colon = tested on: HT29 colon
SK-MEL-2 melanoma = tested on: SK-MEL-2 melanoma
NCI/ADR-RES ovarian = tested on: NCI/ADR-RES ovarian
HS 578T breast = tested on: HS 578T breast
K-562 leukemia = tested on: K-562 leukemia
OVCAR-8 ovarian = tested on: OVCAR-8 ovarian
TK-10 renal = tested on: TK-10 renal
BT-549 breast = tested on: BT-549 breast
SN12C renal = tested on: SN12C renal
SNB-19 CNS = tested on: SNB-19 CNS
ACHN renal = tested on: ACHN renal
SNB-75 CNS = tested on: SNB-75 CNS
IGROV1 ovarian = tested on: IGROV1 ovarian
786-0 renal = tested on: 786-0 renal
UO-31 renal = tested on: UO-31 renal
HCT-116 colon = tested on: HCT-116 colon
RXF 393 renal = tested on: RXF 393 renal
SK-MEL-5 melanoma = tested on: SK-MEL-5 melanoma
NCI-H23 lung = tested on: NCI-H23 lung
RPMI-8226 leukemia = tested on: RPMI-8226 leukemia
UACC-257 melanoma = tested on: UACC-257 melanoma
CCRF-CEM leukemia = tested on: CCRF-CEM leukemia
A498 renal = tested on: A498 renal
HOP-62 NSCLC = tested on: HOP-62 NSCLC

Nc1ccn([C@@H]2C(F)=C(CO)[C@@H](O)[C@H]2O)c(=O)n1
> 100 µM: TGI (CAKI-1 renal) | TGI (OVCAR-5 ovarian) | TGI (LOX IMVI melanoma) | TGI (M14 melanoma) | TGI (MDA-MB-231 breast) | TGI (NCI-H522 lung) | TGI (UACC-62 melanoma) | TGI (MOLT-4 leukemia) | TGI (COLO 205 colon) | TGI (U251 CNS) | TGI (SW-620 colon) | TGI (NCI-H226 lung) | TGI (A549 NSCLC) | TGI (T-47D breast) | TGI (MCF7 breast) | TGI (EKVX NSCLC) | TGI (MALME-3M melanoma) | TGI (HL-60(TB) leukemia) | TGI (HCC-2998 colon) | TGI (SF-539 CNS) | TGI (DU-145 prostate) | TGI (SK-MEL-28 melanoma) | TGI (OVCAR-3 ovarian) | TGI (SR leukemia) | TGI (SK-OV-3 ovarian) | TGI (HCT-15 colon) | TGI (NCI-H460 lung) | TGI (MDA-MB-435) | TGI (OVCAR-4 ovarian) | TGI (SF-268 CNS) | TGI (KM12 colon) | TGI (SF-295 CNS) | TGI (HT29 colon) | TGI (SK-MEL-2 melanoma) | TGI (NCI/ADR-RES ovarian) | TGI (HS 578T breast) | TGI (K-562 leukemia) | TGI (OVCAR-8 ovarian) | TGI (TK-10 renal) | TGI (BT-549 breast) | TGI (SN12C renal) | TGI (SNB-19 CNS) | TGI (ACHN renal) | TGI (SNB-75 CNS) | TGI (IGROV1 ovarian) | TGI (786-0 renal) | TGI (UO-31 renal) | TGI (HCT-116 colon) | TGI (RXF 393 renal) | TGI (SK-MEL-5 melanoma) | TGI (NCI-H23 lung)
inactive: GI50 (CAKI-1 renal) 7.1 µM | GI50 (OVCAR-5 ovarian) 12.2 µM | GI50 (LOX IMVI melanoma) 0.453 µM | GI50 (M14 melanoma) 0.859 µM | GI50 (MDA-MB-231 breast) 2.73 µM | GI50 (NCI-H522 lung) 0.45 µM | GI50 (UACC-62 melanoma) 3.78 µM | GI50 (MOLT-4 leukemia) 1.85 µM | GI50 (COLO 205 colon) 0.838 µM | GI50 (U251 CNS) 2.78 µM | GI50 (SW-620 colon) 0.546 µM | GI50 (NCI-H226 lung) 11.5 µM | GI50 (T-47D breast) 5.02 µM | GI50 (EKVX NSCLC) 26.8 µM | GI50 (MALME-3M melanoma) 9.57 µM | GI50 (HL-60(TB) leukemia) 0.889 µM | GI50 (HCC-2998 colon) 0.962 µM | GI50 (SF-539 CNS) 1.94 µM | GI50 (DU-145 prostate) 0.445 µM | GI50 (SK-MEL-28 melanoma) 6.91 µM | GI50 (OVCAR-3 ovarian) 4.17 µM | GI50 (SR leukemia) 0.443 µM | GI50 (SK-OV-3 ovarian) 4.95 µM | GI50 (HCT-15 colon) 0.545 µM | GI50 (MDA-MB-435) 0.846 µM | GI50 (OVCAR-4 ovarian) 23.2 µM | GI50 (SF-268 CNS) 1.53 µM | GI50 (KM12 colon) 0.65 µM | GI50 (SF-295 CNS) 4.2 µM | GI50 (HT29 colon) 0.625 µM | GI50 (SK-MEL-2 melanoma) > 100 µM | GI50 (NCI/ADR-RES ovarian) 0.578 µM | GI50 (HS 578T breast) 12.3 µM | GI50 (K-562 leukemia) 0.781 µM | GI50 (OVCAR-8 ovarian) 0.551 µM | GI50 (TK-10 renal) 6.73 µM | GI50 (BT-549 breast) 23.5 µM | GI50 (SN12C renal) 0.448 µM | GI50 (SNB-19 CNS) 2.81 µM | GI50 (ACHN renal) 0.755 µM | GI50 (SNB-75 CNS) 9.94 µM | GI50 (IGROV1 ovarian) 2.88 µM | GI50 (786-0 renal) 0.726 µM | GI50 (UO-31 renal) 0.462 µM | GI50 (RXF 393 renal) 8.04 µM | GI50 (SK-MEL-5 melanoma) 4.37 µM | GI50 (NCI-H23 lung) 3.84 µM
active: GI50 (A549 NSCLC) 0.42 µM | GI50 (MCF7 breast) 0.362 µM | GI50 (NCI-H460 lung) 0.384 µM | GI50 (HCT-116 colon) 0.395 µM

Cc1c(C(=O)OCc2ccccc2)[n+](=O)c2cc(F)c(F)cc2n1[O-]
6.32 µM: TGI (MCF7 breast)
4.07 µM: TGI (SK-MEL-28 melanoma)
> 100 µM: TGI (OVCAR-5 ovarian) | TGI (RPMI-8226 leukemia) | TGI (CCRF-CEM leukemia) | TGI (HCT-15 colon) | TGI (NCI/ADR-RES ovarian) | TGI (K-562 leukemia) | TGI (HOP-62 NSCLC) | TGI (786-0 renal) | TGI (HCT-116 colon)
3.53 µM: TGI (HL-60(TB) leukemia) | TGI (OVCAR-4 ovarian)
4.86 µM: TGI (T-47D breast)
3.62 µM: TGI (BT-549 breast)
5.75 µM: TGI (SF-539 CNS)
4.48 µM: TGI (MALME-3M melanoma)
4.06 µM: TGI (SF-295 CNS)
3.19 µM: TGI (SR leukemia)
6.6 µM: TGI (NCI-H460 lung)
3.87 µM: TGI (SNB-19 CNS)
3.3 µM: TGI (IGROV1 ovarian)
9.62 µM: TGI (COLO 205 colon)
3.92 µM: TGI (CAKI-1 renal)
37.7 µM: TGI (TK-10 renal)
5.5 µM: TGI (MOLT-4 leukemia)
2.97 µM: TGI (HS 578T breast)
39.4 µM: TGI (KM12 colon)
3.85 µM: TGI (ACHN renal)
4.68 µM: TGI (HCC-2998 colon) | TGI (SNB-75 CNS)
4 µM: TGI (UACC-257 melanoma)
4.53 µM: TGI (SF-268 CNS)
3.96 µM: TGI (NCI-H522 lung)
6.27 µM: TGI (NCI-H23 lung)
3.94 µM: TGI (MDA-MB-435)
3.36 µM: TGI (UO-31 renal)
3.51 µM: TGI (SK-MEL-2 melanoma)
6.74 µM: TGI (NCI-H226 lung)
3.12 µM: TGI (A498 renal)
